Measurements: patent US20240208898A1, “ENAMINE N-OXIDES: SYNTHESIS AND APPLICATION TO HYPOXIA-RESPONSIVE PRODRUGS AND IMAGING AGENTS” (DANA-FARBER CANCER INSTITUTE, INC., priority 2021, published 2024)

How the values were obtained:
[1] = Enamine N-oxides with reducing agents; assay type: physicochemical; details: probe 200 μM
Method: A stock solution of 2-nitroaniline enamine N-oxide probe 32c (50 μL, 4 mM in 100 mM phosphate buffer, pH 7.4; 200 μM final concentration) was added to a phosphate buffered solution (850 μL, 100 mM phosphate, pH 7.4; 1 mL final volume) in a semi-micro quartz cell open to ambient atmosphere. A solution of glutathione (100 μL, 50 mM in phosphate buffer, pH 7.4; 5 mM final concentration) or cysteine (100 μL, 50 mM in phosphate buffer, pH 7.4; 5 mM final concentration) or tetrahydroxydiboron (100 μL, […] in methanol; 200 μM final concentration) were added to the solution. Reactions with glutathione or cysteine were incubated at 37° C. The reaction with tetrahydroxydiboron was carried out at room temperature. Wavelength scans (400-550 nm) were recorded at several time points (0, 1, and 2 hours).

human liver microsomes = experiment: In vitro microsomal reduction assay; assay type: in vitro ADME; details: hypoxic vs normoxic, 2-nitroaniline released, absorbance at λ=412 nm
Method: All reactions were prepared and carried out in a semi-micro spectrophotometer quartz cell fitted with a septum screw cap (Starna Cells). For anaerobic conditions, all solutions were degassed for 30 minutes by sparging with nitrogen. Cells were maintained under anaerobic conditions using nitrogen lines connected to a nitrogen gas manifold or using a nitrogen-filled balloon. In experiments requiring normoxic conditions, the quartz cells were left open to ambient atmosphere. Unless otherwise stated, reactions were prepared as follows. A solution of human liver microsomes (10 μL, 20 mg/mL in phosphate buffer, pH 7.4, Corning; 200 μg/mL final concentration) followed by a solution of NADPH (16.7 μL, 60 mM in 10 mM NaOH solution; 1 mM final concentration) was added to a phosphate buffered solution ([…], 100 mM phosphate buffer, pH 7.4; 1 mL final volume) at room temperature. After 1 hour, reactions were initiated by the addition of a stock solution of the 2-nitroaniline enamine N-oxide probes 32a-f (50 μL, 4 mM in phosphate buffer, pH 7.4; 200 μM final concentration). […]
Heat-inactivated microsomes were prepared for control experiments by heating a solution of human liver microsomes (20 mg/mL in phosphate buffer, pH 7.4, Corning) to 45° C. for 30 minutes. […]

[2] = Degradation studies of isolated enamine N-oxides in solvent at 60° C.; assay type: physicochemical; details: 6 hours, NMR
Method: Degradation studies were performed using isolated enamine N-oxides (5:5′, 15:1). An LC-MS vial was charged with a 0.1 M solution of enamine N-oxides (23.9 mg, 100 μmol) in the reaction solvent of interest and heated to 60° C. for 6 hours. After heating, the reaction mixture was concentrated under reduced pressure and dissolved in CDCl3. The amounts of enamine N-oxides (5 and 5′) and p-fluorophenol (4) were determined by ^1H and ^19F-NMR integrations using benzotrifluoride as an internal standard. Regioisomer ratios in different solvents were determined by ^1H-NMR integrations of vicinal versus geminal olefinic protons.

[3] = Assay evaluating the stability of enamine N-oxides to metal cations; assay type: physicochemical; details: 200 μM, 2 mM cations, 1 h, room temperature, 100 mM HEPES pH 7.4; Fe^2+ with 10 mM sodium dithionite
Method: Enamine N-oxide 3a (50 μL, 4 mM in water; 200 μM final concentration) was added to a HEPES buffered solution (946 μL, 100 mM HEPES, pH 7.4; 1 mL final volume) in an HPLC vial. A solution of metal cation (4 μL, 500 mM in water, 2 mM final concentration) was then added and the solution was incubated at room temperature. After 1 hour, solutions were analyzed by HPLC (C18 column, 4.6×50 mm, 2.4 μm particle size, 1 mL/minute flow rate, eluent: gradient H2O+0.1% TFA (1 minute), gradient 0→100% MeCN/H2O+0.1% TFA (4 minutes), MeCN+0.1% TFA (1 minute)). p-Cresol was quantified by its absorbance of 280 nm.
The following cations were assayed using this procedure: sodium chloride, potassium chloride, calcium chloride, magnesium chloride, manganese (II) chloride, cobalt (II) sulfate, zinc (II) chloride, nickel (II) acetate, and iron (III) chloride.
For iron (II) sulfate, a solution of iron (II) sulfate (2 μL, 1 M in 1 N HCl; 2 mM final concentration) was added followed by a solution of sodium dithionite (10 μL, 1 M in 1 N NaOH; 10 mM final concentration).

[4] = Assay evaluating the importance of enamine N-oxide unsaturation; assay type: physicochemical; details: reductants B2(OH)4 or Fe^2+, 100 mM HEPES, pH 7.4, HPLC
Method: Enamine N-oxide 6 or alkyl N-oxide S4 (50 μL, 4 mM in water; 200 μM final concentration) were added to a HEPES buffered solution (750 μL, 100 mM HEPES, pH 7.4; 1 mL final volume) in an HPLC vial. N-oxide reduction was initiated by adding a solution of tetrahydroxydiboron (200 μL, 200 nmol, 1 equiv, 1 mM in ethanol) and the resulting solution was incubated at room temperature. After 1 hour, solutions were analyzed by HPLC (C18 column, 4.6×50 mm, 2.4 μm particle size, 1 mL/minute flow rate, eluent: gradient H2O+0.1% TFA (1 minute), gradient 0→100% MeCN/H2O+0.1% TFA (4 minutes), MeCN+0.1% TFA (1 minute)). p-Cresol was quantified by its absorbance at 280 nm.

[5] = Thermal decomposition of enamine N-oxide (Cope elimination); assay type: physicochemical; details: 60° C. in CDCl3 for 1 h
Method: A 1-dram vial was charged with enamine N-oxide S1 (90.0 mg, 179 μmol, 1 equiv) and dissolved in chloroform-d (1.79 mL). The reaction vial was flushed with nitrogen, sealed with a cap and Parafilm, and heated to 60° C. After 1 hour, the oil bath was removed and the reaction was cooled to room temperature. The reaction mixture was purified by flash column chromatography on silica gel (eluent: 5% CMA in chloroform). Fractions containing the desired compound were combined and the solvent was removed under reduced pressure at 0° C. with a rotary evaporator to provide the product S2 (14.9 mg, 34%) as an off-white solid. ^1H NMR (500 MHz, CDCl3, 25° C.): δ 7.94 (d, J=8.3, 1H), 7.86 (d, J=7.3, 1H), 7.79 (d, J=7.9, 1H), 7.55-7.35 (m, 4H), 7.31 (d, J=9.6, 1H), 6.16 (dd, J=36.1, 9.7, 1H), 4.08 (d, J=14.0, 2H), 3.65 (s, 3H). ^13C NMR (126 MHz, CDCl3, 25° C.): δ 165.7 (d, J=277.1), 134.2, 132.0, 130.7 (d, J=3.0), 130.4 (d, J=3.2), 129.1, 128.6, 128.1, 126.8, 126.1, 125.7, 123.6, 100.2 (d, J=8.1), 52.6, 36.5 (d, J=26.2). ^19F NMR (471 MHz, CDCl3, 25° C.): δ −89.5. FTIR (thin film) cm^−1: 2922 (m), 2855 (w), 1662 (m), 1569 (w), 1408 (m), 1140 (s), 779 (s). HRMS (ESI) (m/z): calc'd for C15H15FNO [M+H]^+: 244.1132, found: 244.1129. TLC (5% CMA/chloroform), Rf: 0.30 (UV, KMnO4).
A 1-dram vial was charged with enamine N-oxide S1 (90.0 mg, 179 μmol, 1 equiv) and dissolved in chloroform-d (1.79 mL). […]

[6] = Nucleophilic trapping experiment with benzyl mercaptan; assay type: physicochemical; details: benzyl mercaptan (10 equiv), room temperature
Method: A round-bottom flask was charged with (E)-N,N-diethyl-4-phenyl-3-(p-tolyloxy)but-1-en-1-amine oxide (S6, 26.0 mg, 79.8 μmol, 1 equiv) and dissolved with chloroform-d (773 μL) at room temperature. Benzylmercaptan (93.7 μL, 798 μmol, 10.0 equiv) was then added via syringe. After 5 minutes, analysis by TLC indicated no reduction by benzylmercaptan. Solid bis(pinacolato)diboron (20.3 mg, 79.8 μmol, 1.00 equiv) was then added in one portion at room temperature. After 15 minutes, the reaction was directly loaded onto a silica gel column. The reaction mixture was purified by flash column chromatography (eluent: 100% chloroform) to provide aldehyde S7 (20.2 mg, 94%) as an off-white solid. ^1H NMR (500 MHz, CDCl3, 25° C.): δ 9.51 (dd, J=2.5, 1.4 Hz, 1H), 7.33-7.18 (m, 8H), 7.14-7.08 (m, 2H), 3.68 (q, J=13.4, 10.4 Hz, 2H), 3.20 (tdd, J=8.1, 6.5, 5.6 Hz, 1H), 2.97 (dd, J=13.7, 6.4 Hz, 1H), 2.78 (dd, J=13.8, 8.2 Hz, 1H), 2.60-2.40 (m, 2H). ^13C NMR (126 MHz, CDCl3, 25° C.): δ 200.7, 138.6, 138.1, 129.6, 129.2, 128.8, 128.7, 127.4, 127.0, 47.8, 42.3, 40.5, 36.1. FTIR (thin film) cm^−1: 3026 (w), 2922 (w), 1722 (s), 1494 (m), 1453 (m), 700 (s). HRMS (ESI) (m/z): calc'd for C17H19OS [M+H]^+: 271.1151, found: 271.1149. TLC (100% chloroform), Rf: 0.45 (UV, KMnO4).

For `CC[N+]([O-])(/C=C/COC(=O)Nc1ccccc1[N+](=O)[O-])CC` [probe 32c, (E)-N,N-diethyl-3-(((2-nitrophenyl)carbamoyl)oxy)prop-1-en-1-amine oxide], the reactivity toward cysteine ([1]; 5 mM cysteine, phosphate buffer pH 7.4, 37° C., over 2 h) was “unreactive”, the reactivity toward glutathione ([1]; 5 mM glutathione (GSH), phosphate buffer pH 7.4, 37° C., over 2 h) was “unreactive” and the “time until probe is fully reduced by diboron” value ([1]; B2(OH)4 1 equiv 200 μM, room temperature) was at most 10 min. The “enhancement in the initial rate of reduction under hypoxic conditions” value (human liver microsomes) was 21 fold.

For `CC[N+]([O-])(/C=C/COc1ccc(F)cc1)CC` [enamine N-oxide 5, (E)-N,N-diethyl-3-(4-fluorophenoxy)prop-1-en-1-amine oxide], the “Yield (%) 4 (p-fluorophenol formed)” value ([2]; CHCl3, 0.1 M) was 29%, the “Yield (%) 5 + 5′ (enamine N-oxide remaining)” value ([2]; CHCl3, 0.1 M) was 45% and the “Yield (%) 4 (p-fluorophenol formed)” value ([2]; TFE, 0.1 M) was under 1%. For the same compound, the “Yield (%) 5 + 5′ (enamine N-oxide remaining)” value ([2]; TFE, 0.1 M) was 96%.

With `CC[N+]([O-])(/C=C/COc1ccc(C)cc1)CC` [enamine N-oxide 6] the “stability in the presence of different metal cations” value [3] was “Only Fe^2+ was capable of reducing enamine N-oxides” and the “release of p-cresol upon reduction” value [4] was “led to the release of p-cresol”.

In the case of `C[N+]([O-])(/C=C/C(F)(F)Cc1cccc2ccccc12)CCCCC(=O)NCc1ccc2ccccc2c1` (stereo not shown) [enamine N-oxide S1, (E)-N-(3,3-difluoro-4-(naphthalen-1-yl)but-1-en-1-yl)-N-methyl-5-((naphthalen-2-ylmethyl)amino)-5-oxopentan-1-amine oxide], the thermal decomposition [5] is reported as “two new products were isolated in addition to the starting material”.

For `CC[N+]([O-])(CC)CCCOc1ccc(C)cc1` [alkyl N-oxide S4, N,N-diethyl-3-(p-tolyloxy)propan-1-amine oxide], the “release of p-cresol upon reduction” value [4] was “did not lead to the release of p-cresol”.

With `CC[N+]([O-])(/C=C/C(Cc1ccccc1)Oc1ccc(C)cc1)CC` (stereo not shown) [enamine N-oxide S6, (E)-N,N-diethyl-4-phenyl-3-(p-tolyloxy)but-1-en-1-amine oxide] the “reduction in the absence of diboron” value [6] was “not reduced in the absence of diboron”.
